Organism: Homo sapiens
Assay: PGI-2 agonistic activity by measuring inhibition of 4 uM ADP-induced human platelet aggregation; call rule not given here
Format: functional

Row | SMILES | IC50
1 | C/C(CC1CCc2c(cccc2OCC(=O)O)C1)=N\OC(c1ccccc1)c1ccccc1 (stereo not drawn) | 0.23 µM
2 | C/C(CC1CCc2c(cccc2OCC(=O)O)C1)=N\OC(c1ccccc1)c1ccccn1 (stereo not drawn) | 0.57 µM
3 | O=C(O)COc1cccc2c1CCC(Cn1cc(C(c3ccccc3)c3ccccc3)cn1)C2 (stereo not drawn) | 0.13 µM
4 | CC#CCC(C)[C@H](O)/C=C/[C@@H]1[C@H]2C/C(=C/CCCC(=O)O)C[C@H]2C[C@H]1O (stereo partly drawn) [ILOPROST] | 0.0014 µM

Continued, values first:

Row | IC50 | SMILES
5 | 0.44 µM | O=C(O)COc1cccc2c1CCCC2CCC(=O)NN(c1ccccc1)c1cccnc1 (stereo not drawn)
6 | 0.15 µM | O=C(O)COc1cccc2c1CCC(Cn1cc(C(c3ccccc3)c3cccnc3)cn1)C2 (stereo not drawn)
7 | 0.32 µM | CCC/C(CC1CCc2c(cccc2OCC(=O)O)C1)=N\OC(c1ccccc1)c1cccnc1 (stereo not drawn)
8 | 0.48 µM | C/C(CC1CCc2c(cccc2OCC(=O)O)C1)=N\OC(c1ccccc1)c1ccncc1 (stereo not drawn)
9 | 1.4 µM | C/C(CC1CCc2c(cccc2OCC(=O)O)C1)=N\OC(c1ccccc1)c1cccnc1 (stereo not drawn)
10 | 0.24 µM | O=C(O)COc1cccc2c1CCCC2CCO/N=C(\c1ccccc1)c1cccnc1 (stereo not drawn)

Organism: Homo sapiens
Assay: PGI-2 agonistic activity by measuring inhibition of 4 uM ADP-induced human platelet aggregation; Inactive
Format: functional

Row | SMILES | IC50
11 | C/C(=C\c1ccc(Cc2cccnc2)cc1)C(=O)[O-].[Na+] [ONO-1581] | Not Active
12 | O=C(O)/C=C/c1ccc(Cn2ccnc2)cc1 [OZAGREL] | Not Active

Molecular target: T1, Thromboxane-A synthase (Homo sapiens, UniProt P24557)
T1 sequence (P24557 whole entry): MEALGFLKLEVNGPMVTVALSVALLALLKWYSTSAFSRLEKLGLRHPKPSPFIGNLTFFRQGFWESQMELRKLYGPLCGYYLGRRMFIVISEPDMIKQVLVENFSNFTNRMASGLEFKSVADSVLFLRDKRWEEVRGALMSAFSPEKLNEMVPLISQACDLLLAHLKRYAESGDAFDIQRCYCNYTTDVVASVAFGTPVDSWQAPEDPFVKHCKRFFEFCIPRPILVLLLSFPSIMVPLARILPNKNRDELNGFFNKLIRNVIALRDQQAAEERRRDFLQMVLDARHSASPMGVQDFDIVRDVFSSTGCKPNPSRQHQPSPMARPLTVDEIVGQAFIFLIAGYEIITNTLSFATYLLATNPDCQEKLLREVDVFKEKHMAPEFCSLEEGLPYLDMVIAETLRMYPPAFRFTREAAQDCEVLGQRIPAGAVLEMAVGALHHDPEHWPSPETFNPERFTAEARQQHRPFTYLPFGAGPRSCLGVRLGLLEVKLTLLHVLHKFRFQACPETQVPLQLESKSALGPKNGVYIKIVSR
Assay: Inhibitory activity against Thromboxane A2 synthase in human platelet microsome

Row | SMILES | IC50
13 | O=C(O)COc1cccc2c1CCCC2CCC(=O)NN(c1ccccc1)c1ccccc1 (stereo not drawn) | Not Active
14 | O=C(O)COc1cccc2c1CCC(Cn1cc(C(c3ccccc3)c3ccccc3)cn1)C2 (stereo not drawn) | Not Active
15 | CCC/C(CC1CCc2c(cccc2OCC(=O)O)C1)=N\OC(c1ccccc1)c1ccccc1 (stereo not drawn) [AP-227] | Not Active

Molecular target: T1, Thromboxane-A synthase
Assay: Inhibitory activity against Thromboxane A2 synthase in human platelet microsome; Inactive

Row | SMILES | IC50
16 | C/C(CC1CCc2c(cccc2OCC(=O)O)C1)=N\OC(c1ccccc1)c1ccccc1 (stereo not drawn) | Not Active
17 | O=C(O)COc1cccc2c1CCCC2CCON=C(c1ccccc1)c1ccccc1 (stereo not drawn) | Not Active

Molecular target: T1, Thromboxane-A synthase
Assay: Inhibitory activity against Thromboxane A2 synthase in human platelet microsome; inactive

Row | SMILES | IC50
18 | CC#CCC(C)[C@H](O)/C=C/[C@@H]1[C@H]2C/C(=C/CCCC(=O)O)C[C@H]2C[C@H]1O (stereo partly drawn) [ILOPROST] | Not Active

Reference: ChEMBL document CHEMBL1150504, “Pharmacological evaluation of combined PGI2 agonists/thromboxane synthase inhibitors. I” (Bioorg Med Chem Lett, 1995)
